Reference: PMC7110988 (Chemistry & Biology, 2005)
Entries after “also recorded” stand apart in the source; their conditions may differ.

Experiments:
[1] = biological target: SCV helicase (nsp13) ATPase activity (Severe acute respiratory syndrome coronavirus, UniProt P0C6X7); assay: biochemical; set-up: species or system SARS coronavirus
[2] = biological target: SCV helicase helicase activity (Severe acute respiratory syndrome coronavirus, UniProt P0C6X7); format: biochemical, SARS coronavirus
[3] = biological target: SCV helicase (nsp13) unstimulated ATPase activity (Severe acute respiratory syndrome coronavirus, UniProt P0C6X7); format: biochemical, SARS coronavirus
E. coli DnaB helicase = E. coli DnaB helicase (Escherichia coli, UniProt P0ACB0); format: biochemical
E. coli DnaB helicase, sequence (P0ACB0 whole entry): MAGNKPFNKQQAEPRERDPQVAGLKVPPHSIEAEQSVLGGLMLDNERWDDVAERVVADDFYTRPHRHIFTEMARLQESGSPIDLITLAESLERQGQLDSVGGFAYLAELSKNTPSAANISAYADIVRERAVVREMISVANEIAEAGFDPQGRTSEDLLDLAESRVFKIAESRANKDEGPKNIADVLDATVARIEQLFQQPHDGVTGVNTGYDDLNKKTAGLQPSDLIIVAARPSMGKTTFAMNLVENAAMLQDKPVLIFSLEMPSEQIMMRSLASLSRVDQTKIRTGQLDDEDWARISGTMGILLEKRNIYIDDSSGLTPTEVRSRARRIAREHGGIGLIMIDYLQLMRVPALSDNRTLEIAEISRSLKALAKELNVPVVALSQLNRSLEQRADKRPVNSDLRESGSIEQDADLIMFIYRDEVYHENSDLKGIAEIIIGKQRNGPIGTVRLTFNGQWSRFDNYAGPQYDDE

[4] = system: SCV (strain GZ50) in FRhK-4 cells; format: cell-based, SARS coronavirus; details: 50 μM
[5] = system: SCV (strain GZ50) in FRhK-4 cells; assay: microbe, parasite or virus in culture; format: cell-based, SARS coronavirus
SARS coronavirus (SCV) = details: cited from earlier work

COc1cc(CC(C)c2nc(C)c(O)c(C34OC5(O)CC(O)(CC(O)(C5)O3)O4)c2CO)ccc1O (racemic) [eubananin, 1-[6-[(2RS)-1-(4-hydroxy-3-methoxyphenyl)-2-propyl]-3-hydroxy-5-(hydroxymethyl)-2-methyl-4-pyridinyl]-2,8,9-trioxaadamantane-3,5,7-triol]
IC50 [1]: 2800 nM
Inhibition of helicase activity (in words) [2]: effective inhibitors; also recorded: the best inhibitors of DNA-unwinding

Cc1ncc(CO)c(C23OC4(O)CC(O)(CC(O)(C4)O2)O3)c1O [bananin, 1-[3-hydroxy-5-(hydroxymethyl)-2-methyl-4-pyridinyl]-2,8,9-trioxaadamantane-3,5,7-triol]
IC50 [1]: 2300 nM
Mechanism of inhibition of ATPase activity [1]: noncompetitive inhibitor
Inhibition of unstimulated basal ATPase activity [3]: not an effective inhibitor; also recorded: Far weaker inhibition
Inhibition of unstimulated basal ATPase activity at 100 µM ([3]; 100 µM): slight inhibition
Inhibition of helicase activity (in words) [2]: effective inhibitors; also recorded: the best inhibitors of DNA-unwinding
Inhibition of DnaB helicase (E. coli DnaB helicase): did not inhibit
Cytopathic effects relative to control infection [4]: distinctly reduced
Reduction of viral titre [5]: ~50%
Viral titre [5]: almost zero
Viral titre, % of untreated control infection [5]: below 10%
EC50 ([5]; Severe acute respiratory syndrome coronavirus, FRhK-4, read-out: EC50 (antiviral, viral titre)): < 10000 nM
Specificity index (CC50/EC50) (FRhK-4 cells): over 39

NC(=O)c1ncn([C@@H]2O[C@H](CO)[C@@H](O)[C@H]2O)n1 [ribavirin]
Activity in cell culture (SARS coronavirus (SCV)): lack of activity

COc1cc(C23OC4(O)CC(O)(CC(O)(C4)O2)O3)ccc1O [vanillinbananin, 1-(4-hydroxy-3-methoxyphenyl)-2,8,9-trioxaadamantane-3,5,7-triol]
IC50 [1]: 680 nM
Inhibition of helicase activity (in words) [2]: effective inhibitors; also recorded: the best inhibitors of DNA-unwinding
